The values that follow are results of earlier work, collected in patent publication US8884020B2, “Indole compounds” (Ironwood Pharmaceuticals, Inc., priority 2006, dated 2014).

This data set relates to prostaglandin synthesis. The following applies: Shen et al. 1977.

For the molecule `Cc1c(CC(=O)O)c2cc(O)ccc2n1C(=O)c1ccc(Cl)cc1` [desmethyl metabolite, (1-(4-chlorobenzoyl)-5-hydroxy-2-methyl-1H-indol-3-yl]acetic acid], the “ability to inhibit prostaglandin synthesis” value is given as “some ability to inhibit prostaglandin synthesis”.
